In US20260207572A1, “METHODS AND COMPOSITIONS FOR TREATMENT OF SUBJECTS WITH HEPATIC IMPAIRMENTS” (ELEVAR THERAPEUTICS, INC., priority 2022, published 2026):

What was measured:
CYP2B6 = biological target: T1, CYP2B6 (Homo sapiens, UniProt P20813); assay: In vitro CYP phenotyping and metabolism study, recombinant CYP2B6; assay type: in vitro ADME
T1 sequence (P20813 1-491): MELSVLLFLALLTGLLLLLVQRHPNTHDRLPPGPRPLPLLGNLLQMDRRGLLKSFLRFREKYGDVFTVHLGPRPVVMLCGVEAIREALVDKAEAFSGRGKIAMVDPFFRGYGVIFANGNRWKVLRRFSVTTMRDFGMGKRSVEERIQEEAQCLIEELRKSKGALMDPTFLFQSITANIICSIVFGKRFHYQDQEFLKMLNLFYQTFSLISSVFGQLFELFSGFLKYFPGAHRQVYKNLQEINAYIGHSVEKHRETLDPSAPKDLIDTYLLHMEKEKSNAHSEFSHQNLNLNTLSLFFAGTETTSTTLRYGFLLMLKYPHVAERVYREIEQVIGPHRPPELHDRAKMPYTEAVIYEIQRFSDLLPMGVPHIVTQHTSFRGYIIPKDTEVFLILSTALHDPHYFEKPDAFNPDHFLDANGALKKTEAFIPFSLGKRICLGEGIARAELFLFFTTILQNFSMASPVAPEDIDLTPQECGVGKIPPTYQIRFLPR
Procedure: (§1) Recently, an in vitro cytochrome (CYP) phenotyping and metabolism study was performed.

CYP2C8 = biological target: T2, CYP2C8 (Homo sapiens, UniProt P10632); assay: In vitro CYP phenotyping and metabolism study, recombinant CYP2C8; assay type: in vitro ADME
T2 sequence (P10632 1-490): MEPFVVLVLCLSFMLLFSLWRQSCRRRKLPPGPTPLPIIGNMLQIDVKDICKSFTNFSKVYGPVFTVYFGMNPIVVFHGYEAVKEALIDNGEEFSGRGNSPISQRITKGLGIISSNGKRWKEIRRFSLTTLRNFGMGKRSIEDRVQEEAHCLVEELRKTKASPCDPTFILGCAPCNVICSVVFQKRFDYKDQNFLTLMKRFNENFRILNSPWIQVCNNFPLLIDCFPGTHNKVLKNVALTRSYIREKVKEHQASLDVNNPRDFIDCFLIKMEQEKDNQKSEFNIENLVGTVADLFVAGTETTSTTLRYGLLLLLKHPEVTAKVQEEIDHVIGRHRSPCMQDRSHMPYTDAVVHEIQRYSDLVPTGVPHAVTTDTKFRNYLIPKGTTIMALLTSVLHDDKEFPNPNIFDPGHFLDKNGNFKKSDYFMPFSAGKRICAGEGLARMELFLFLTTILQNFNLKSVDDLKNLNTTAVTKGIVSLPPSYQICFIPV
Procedure: as §1

SMILES: N#CC1(c2ccc(NC(=O)c3cccnc3NCc3ccncc3)cc2)CCCC1 [Rivoceranib, N-[4-(1-cyanocyclopentyl)phenyl]-2-{[(pyridin-4-yl)methyl]amino} pyridine-3-carboxamide]
- rivoceranib consumed at 60 minute incubation (CYP2B6; CYP2B6): less than 10%
- % Remaining at 60 minute incubation (CYP2B6; Recombinant CYP2B6, 5 μM): 96.3%
- CLINT (CYP2B6; Recombinant CYP2B6, 5 μM): 0.020 μL/minunte/mg
- half-life at 5 µM (CYP2B6; human, Recombinant CYP2B6, 5 μM, read-out: t½): 5.73 h
- rivoceranib consumed at 60 minute incubation (CYP2C8; CYP2C8): less than 10%
- % Remaining at 60 minute incubation (CYP2C8; Recombinant CYP2C8, 5 μM): 103%
- CLINT (CYP2C8; Recombinant CYP2C8, 5 μM): 0.037 μL/minunte/mg
- half-life at 5 µM (CYP2C8; human, Recombinant CYP2C8, 5 μM, read-out: t½): 12.6 h
